Laboratory results from patent publication US6960683B2, “Salt forms of poorly soluble probucol esters and ethers” (Atherogenics, Inc., priority 2002, dated 2005).
Structures can show the parent of a compound that is named as a salt. Where two headings read alike, the source gives them in different places.

Key:
Solubility in water = format: physicochemical; settings: for solubility: water, 25 °C
VCAM-1 = test: In Vitro VCAM-1 Assay (ELISA of TNF-α-stimulated endothelial cells); format: cell-based, human; settings: HAEC or HPAEC cells stimulated with TNF-α (1 ng/ml), approx. 16 h, n = 3
Description: Cell Culture and compound dosing: Cultured primary human aortic (HAEC) or pulmonary (HPAEC) endothelial cells were obtained from Clonetics, Inc., and were used below passage 9. Cells were seeded in 96 well plates such that they would reach 90-95% confluency by the following day. On the following day the cells were stimulated with TNF-α (1 ng/ml) in the presence or absence of compounds dissolved in DMSO such that the final concentration of DMSO is 0.25% or less. To establish a dose curve for each compound, four concentrations in 2- to 5-fold increments were used. Cells were exposed to TNF-α and compounds for approximately 16 hours. The next day the cells were examined under microscope to score for visual signs of toxicity or cell stress.
Following 16 hr exposure to TNF-α and compound the media was discarded and the cells were washed once with Hanks Balanced Salt Solution (HBSS)/Phosphate buffered saline (PBS) (1:1). Primary antibodies against VCAM-1 (0.25 μg/ml in HBSS/PBS+5% FBS) were added and incubated for 30-60 minutes at 37° C. Cells were washed with HBSS/PBS three times, and secondary antibody Horse Radish Peroxidase (HRP)-conjugated goat anti-mouse IgG (1:500 in HBSS/PBS+5% FBS) were added and incubated for 30 minutes at 37° C. Cells were washed with HBSS/PBS four times and TMB substrate were added and incubated at room temperature in the dark until there was adequate development of blue color. The length of time of incubation was typically 5-15 minutes. 2N sulfuric acid was added to stop the color development and the data was collected by reading the absorbance on a BioRad ELISA plate reader at OD 450 nm. The results are expressed as IC50 values (the concentration (micromolar) of compound required to inhibit 50% of the maximal response of the control sample stimulated by TNF-α only). IC50's of the Examples and the free acid of the Examples are tabulated in VCAM-1 Table 1a.

[1] = meglumine salt of the Example, ˜25° C., read-out: Solubility (μg/ml) @ ˜25° C.
[2] = meglumine salt, value given in the synthesis example, read-out: Solubility in water
[3] = Homo sapiens, Endothelial cell, meglumine salt of the Example, read-out: IC50 (μM) (n = 3)
[4] = free acid of the Example, ˜25° C., read-out: Solubility, Free acid (μg/ml) @ ˜25° C.
[5] = Homo sapiens, Endothelial cell, free acid of the Example, read-out: IC50 (μM) of the free acid (n = 3)

Solubility, Free acid (μg/ml) @ ˜25° C. (Solubility in water; free acid of the Example, ˜25° C.) [µg/mL]	IC50 (VCAM-1; free acid of the Example, read-out: IC50 (μM) of the free acid (n = 3)) [µM]	solubility (Solubility in water; [1]) [µg/mL]	solubility (Solubility in water; [2]) [µg/mL]	IC50 (VCAM-1; [3]) [µM]	solubility (Solubility in water; [4]) [µg/mL]	IC50 (VCAM-1; [5]) [µM]	Structure (SMILES)
<5	7.7						CC(C)(Sc1cc(C(C)(C)C)c(O)c(C(C)(C)C)c1)Sc1cc(C(C)(C)C)c(OC(=O)CCC(=O)O)c(C(C)(C)C)c1 [Example 1 free acid, Butanedioic acid, mono [4-[[1-[[3,5-bis(1,1-dimethylethyl)-4-hydroxyphenyl]thio]-1-methylethyl]thio]-2,6-bis(1,1-dimethylethyl)phenyl]ester, reference compound]
					< 5	11	CC(C)(Sc1cc(C(C)(C)C)c(O)c(C(C)(C)C)c1)Sc1cc(C(C)(C)C)c(OCCCC(=O)O)c(C(C)(C)C)c1 [Example 3 free acid, Butanoic acid, 4-[4-[[1-[[3,5-bis(1,1-dimethylethyl)4-hydroxyphenyl]thio]-1-methyl-ethyl]thio]-2,6-bis(1,1-dimethylethyl)phenoxy]-, reference compound]
		1910	1910	12			CC(C)(Sc1cc(C(C)(C)C)c(O)c(C(C)(C)C)c1)Sc1cc(C(C)(C)C)c(OCCCC(=O)O)c(C(C)(C)C)c1 [Example 3, Butanoic Acid, 4-[4-[[1-[[3,5-bis(1,1-dimethylethyl)4-hydroxyphenyl]thio]-1-methylethyl]-thio]-2,6-bis(1,1-dimethylethyl)phenoxy]-, Meglumine Salt]

More lines, now with the values behind:

Structure (SMILES)	Solubility, Free acid (μg/ml) @ ˜25° C. (Solubility in water; free acid of the Example, ˜25° C.) [µg/mL]	IC50 (VCAM-1; free acid of the Example, read-out: IC50 (μM) of the free acid (n = 3)) [µM]	solubility (Solubility in water; [1]) [µg/mL]	solubility (Solubility in water; [2]) [µg/mL]	IC50 (VCAM-1; [3]) [µM]	solubility (Solubility in water; [4]) [µg/mL]	IC50 (VCAM-1; [5]) [µM]
CC(C)(Sc1cc(C(C)(C)C)c(O)c(C(C)(C)C)c1)Sc1cc(C(C)(C)C)c(OC(=O)CCC(=O)O)c(C(C)(C)C)c1 [Example 1, Butanedioic Acid, Mono [4-[[1-[[3,5-bis(1,1-dimethylethyl)-4-hydroxyphenyl]thio]-1-methylethyl]thio]-2,6-bis(1,1-dimethylethyl)phenyl]Ester Meglumine Salt]			390	390	13		
CC(C)(Sc1cc(C(C)(C)C)c(O)c(C(C)(C)C)c1)Sc1cc(C(C)(C)C)c(OCC(=O)O)c(C(C)(C)C)c1 [Example 2 free acid, Acetic acid, [4-[[1-[[3,5-bis(1,1-dimethylethyl)-4-hydroxyphenyl]thio]-1-methyl-ethyl]thio]-2,6-bis(1,1-dimethylethyl)phenoxy]-, reference compound]						< 5	10
CC(C)(Sc1cc(C(C)(C)C)c(O)c(C(C)(C)C)c1)Sc1cc(C(C)(C)C)c(OCC(=O)O)c(C(C)(C)C)c1 [Example 2, Acetic Acid, [4-[[1-[[3,5-bis(1,1-dimethylethyl)-4-hydroxyphenyl]thio]-1-methylethyl]thio]-2,6-bis(1,1-dimethylethyl)phenoxy]-, Meglumine Salt]			1010	1010	6.5		
